Earlier results as cited in US20060228403A1, “Nutritional supplements for cardiovascular health” (priority 2005, published 2006).

Assays:
forearm microcirculation = conditions: after supplementation 4 g/d for 6 weeks
[1] = tested on: cytochrome P450 omega-hydroxylase; conditions: hamster; for magnitude of O2-induced constriction of arterioles in the cremaster and retractor muscles: 17-octadecynoic acid 10 micromolar superfusion, DDMS intravenous infusion
[2] = tested on: platelet aggregation in cerebral arterioles; conditions: mice
thromboxane B2 = conditions: mice; fish oil daily by gavage six weeks; indomethacin 0.5 mg/kg ip acute

CC/C=C\C/C=C\C/C=C\C/C=C\C/C=C\C/C=C\CCC(=O)O [DHA, docosahexaenoic acid]
plasma phospholipid DHA composition (forearm microcirculation): increased

CC/C=C\C/C=C\C/C=C\C/C=C\C/C=C\CCCC(=O)O [EPA, eicosapentaenoic acid]
plasma phospholipid EPA levels (forearm microcirculation): increased significantly

C#CCCCCCCCCCCCCCCCC(=O)O [17-octadecynoic acid]
arteriolar constriction in response to elevated PO2 in the epithelial portion of the cheek pouch [1]: unaffected
magnitude of O2-induced constriction of arterioles in the cremaster and retractor muscles [1]: significant reduction

COc1ccc2c(c1)c(CC(=O)O)c(C)n2C(=O)c1ccc(Cl)cc1 [Indomethacin, indomethacin]
effect on arteriolar platelet aggregation [2]: significantly slows
increase of time to first arteriolar aggregate ([2]; 0.5 mg/kg ip acute): 35%
decrease of serum thromboxane B2 (thromboxane B2): 80%

CS(=O)(=O)NC(=O)CCCCCCCCCC=C(Br)Br [N-methylsulfonyl-12,12-dibromododec-11-enamide]
arteriolar constriction in response to elevated PO2 in the epithelial portion of the cheek pouch [1]: unaffected
magnitude of O2-induced constriction of arterioles in the cremaster and retractor muscles [1]: significant reduction
